The record followed here is PubChem BioAssay AID720632 (Broad Institute, 2013).

The source made the active and inactive calls. No rule for the calls is given here.

One experiment deals with Caspase-6 (Homo sapiens) (UniProt P55212). Nature of the experiment: human caspase-6 inhibitors, dose response, biochemical, VEID-R110 fluorescence, cherry-pick (AID 720632). The following applies: caspase-6, VEID-R110 fluorogenic substrate; at 23.5 µM (top of the series).
Caspase-6 (Homo sapiens), sequence (P55212 24-179 limits assumed): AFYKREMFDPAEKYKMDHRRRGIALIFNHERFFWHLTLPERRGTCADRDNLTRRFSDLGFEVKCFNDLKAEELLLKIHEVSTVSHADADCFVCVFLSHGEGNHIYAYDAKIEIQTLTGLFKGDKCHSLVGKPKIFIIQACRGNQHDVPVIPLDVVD
Caspase-6 (Homo sapiens), sequence (P55212 194-293 limits assumed): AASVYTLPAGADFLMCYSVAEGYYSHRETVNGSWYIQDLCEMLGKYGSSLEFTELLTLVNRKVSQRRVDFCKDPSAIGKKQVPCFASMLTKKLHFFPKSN
As to `COCC(=O)Nc1ccc2c(c1)OC[C@H](C)N(CC1CC1)C[C@@H](C)[C@H](OC)CN(C)C2=O`, the “activity change, negative = inhibition” value is “inactive”.

Consider `COCC(=O)N1[C@@H]2CN(C(=O)Nc3ccccc3F)c3ccccc3[C@@H]2[C@@H]1CO`, for which the “activity change, negative = inhibition” value was “inactive”.

Staying with this experiment, now noted: caspase-6, VEID-R110 fluorogenic substrate; at 26 µM (top of the series).
In the case of `C/C(=N/NS(=O)(=O)c1ccc(Cl)cc1)c1cccc(NC(=O)c2ccncc2)c1`, the “activity change, negative = inhibition” value was “inactive”. Still for that read-out and setting: the value for `CCCCOc1ccc(C(=O)OCC(=O)N2CCOCC2)cc1` was “inactive”; that for `Cc1ccc(NS(=O)(=O)c2ccc(Br)s2)nc1` was “inactive”; that for `O=C(COC(=O)c1ccc([N+](=O)[O-])o1)Nc1ccc2c(c1)OC(F)(F)O2` was “inactive”. The same measure, in the same setting: the value for `CCOC(=O)c1c(NC(=O)C2CC(Cl)=CCC2C(=O)O)sc2c1CC(C)(C)OC2` (stereo not drawn) was “inactive”. Same read-out and setting: to `CSc1ccccc1OCc1cc(C(=O)N2CCc3c(Cl)cccc3C2)no1` belongs “inactive”; to `Cc1ccc(S(=O)(=O)N2CCC(C(=O)NCCCN3CCOCC3)CC2)cc1C`, “inactive”; to `Cc1cccc(C)c1OCc1nc2ccccc2[nH]1`, “inactive”.

As to `CCS(=O)(=O)c1nc(S(=O)(=O)c2ccc(Cl)cc2)c(N2CCOCC2)s1`, the “activity change, negative = inhibition” value is “inactive”.

With `Oc1cc(Nc2cccnc2)cc2cccnc12`, the “activity change, negative = inhibition” value is “inactive”. In the case of `O=C(C1CCN(c2ccc(N3CCOCC3)nn2)CC1)N1CCc2ccccc2C1`, the “activity change, negative = inhibition” value was “inactive”. Same read-out and setting: to `CCO[C@H]1OC(C(=O)N2CCOCC2)=C[C@@H](c2ccc3c(c2)OCO3)[C@@H]1CCCO` belongs “inactive”; to `Nc1cccnc1Oc1ccc(F)cc1`, “inactive”; to `CO[C@@H]1CN(C)C(=O)c2ccc(NC(=O)C3CC3)cc2OC[C@H](C)N(Cc2ccccc2)C[C@H]1C`, “inactive”.

As to `CCCN1C[C@@H](C)[C@@H](OC)CN(C)C(=O)c2ccc(NC(=O)c3ccccc3)cc2OC[C@H]1C`, the “activity change, negative = inhibition” value was “inactive”. The same measure, in the same setting: to `CCc1ccccc1OCC(=O)OCC(=O)N1CC(=O)Nc2ccccc21` belongs “inactive”; to `COCC(=O)Nc1ccc2c(c1)OC[C@@H](C)N(CC1CC1)C[C@@H](C)[C@@H](OC)CN(C)C2=O`, “inactive”; to `CO[C@H]1CN(C)C(=O)c2ccc(NC(=O)C3CC3)cc2OC[C@H](C)N(Cc2ccccc2)C[C@H]1C`, “inactive”. The same measure, in the same setting: to `CCC(=O)Nc1ccc2c(c1)OC[C@H](C)N(C(=O)C1CC1)C[C@H](C)[C@@H](OC)CN(C)C2=O` belongs “inactive”; to `CCCC(=O)Nc1ccc2c(c1)OC[C@H](C)N(Cc1ccc(F)cc1)C[C@H](C)[C@@H](OC)CN(C)C2=O`, “inactive”. Same read-out and setting: the value for `Cc1ccc(NC(=O)CCC(=O)NNC(=O)COc2ccccc2)c(C)c1` was “inactive”. In the case of `O=C(Nc1ccc(NC(=O)C2CC2)cc1)c1cccs1`, the “activity change, negative = inhibition” value was “inactive”. Still for that read-out and setting: the value for `CN1CC2([N+](=O)[O-])CC=C(OCCO)C([N+](=O)[O-])(C1)C2` (stereo not drawn) was “inactive”; that for `OC[C@H]1[C@H](c2ccc(-c3ccc(F)cc3)cc2)[C@@H]2CN(Cc3cccnc3)CCCCN12` was “inactive”; that for `COc1ccccc1C#Cc1ccc2c(c1)O[C@@H](CN(C)C)[C@@H](C)CN([C@@H](C)CO)S2(=O)=O` was “inactive”. Same read-out and setting: to `Cc1ccc(C)c(OCCC(=O)N2CCN(S(=O)(=O)c3cc(F)ccc3F)CC2)c1` belongs “inactive”; to `Oc1ccc(/C=N/Nc2ccnc3cc(Cl)ccc23)c(O)c1`, “inactive”.

`CC(OC(=O)c1n[nH]c2ccccc12)C(=O)Nc1ccccc1[N+](=O)[O-]` (stereo not drawn): the “activity change, negative = inhibition” value is “inactive”.

Consider `O=C(C[C@@H]1C=C[C@@H](NC(=O)c2ccc(F)cc2)[C@@H](CO)O1)NCc1ccncn1`, for which the “activity change, negative = inhibition” value was “inactive”.

Consider `CO[C@@H]1CN(C)C(=O)c2ccc(NC(=O)c3ccccc3)cc2OC[C@H](C)N(C(=O)C2CC2)C[C@H]1C`, for which the “activity change, negative = inhibition” value was “inactive”. On the same count and under the same terms, the value for `COc1ccccc1C(=O)Nc1ccc2c(c1)OC[C@@H](C)N(CC1CC1)C[C@H](C)[C@@H](OC)CN(C)C2=O` was “inactive”; that for `CCN(CC)c1nc(N)c2c(N)nc(OC)cc2c1C#N` was “inactive”; that for `Cc1ccc(NC(=O)C(c2ccccc2)N2CCN(CC(=O)N3CCOCC3)CC2)cc1Cl` (stereo not drawn) was “inactive”. On the same count and under the same terms, the value for `O=S(=O)(c1cccc2cccnc12)N1CCN(c2ccc(F)cc2)CC1` was “inactive”; that for `CO[C@@H]1CN(C)C(=O)c2ccc(NC(=O)C3CC3)cc2OC[C@@H](C)N(CC2CCOCC2)C[C@@H]1C` was “inactive”. On to `COC(=O)C[C@@H]1CC[C@H](NC(=O)c2ccc3c(c2)OCO3)[C@@H](CO)O1`, for which the “activity change, negative = inhibition” value is “inactive”. On the same count and under the same terms, to `O=C(COC(=O)c1ccccc1OCc1ccccc1Cl)NC1CCS(=O)(=O)C1` (stereo not drawn) belongs “inactive”. The same measure, in the same setting: to `O=C(NC(=C(Cl)Cl)S(=O)(=O)c1ccc(Cl)cc1)c1ccccc1` belongs “inactive”; to `O=C(Nc1ccc2c(c1)OCO2)C1Cc2c(-c3ccc4c(c3)OCO4)ccnc2O1` (stereo not drawn), “inactive”. On the same count and under the same terms, the value for `CCCCn1nnnc1C(CCSC)N1CCC(n2c(=O)[nH]c3ccccc32)CC1` (stereo not drawn) was “inactive”; that for `O=C(OCc1ccccc1)N1CCCC2CC1c1ccccc12` (stereo not drawn) was “inactive”. As for `C/C(CC(=O)Nc1cc(C)ccn1)=N\NC(=O)c1cccc(C)c1O`, the “activity change, negative = inhibition” value was “inactive”.

Consider `CC1CCc2[nH]c3ccc(C(=O)O)cc3c2C1` (stereo not drawn), for which the “activity change, negative = inhibition” value is “inactive”.

Turning to `CCNC(=S)N1CCCCC1CO` (stereo not drawn), the “activity change, negative = inhibition” value is “inactive”. On the same count and under the same terms, the value for `COC(=O)CN1C(=O)COc2ccc(S(=O)(=O)N3CCCCC3)cc21` was “inactive”; that for `COc1cccc(NS(=O)(=O)c2ccc3c(c2)NC(=O)CC(=O)N3)c1` was “inactive”; that for `O=C(Oc1cccc(-n2cnnn2)c1)c1ccccc1Cl` was “inactive”. The same measure, in the same setting: to `CC(C)CNC(=O)C1(C)CCCN1C(=O)Cc1cccc2ccccc12` (stereo not drawn) belongs “inactive”. Still for that read-out and setting: the value for `O=C(CCOc1ccccc1)N1CCN(S(=O)(=O)c2ccccc2F)CC1` was “inactive”; that for `COc1ccc(OC)c(NC(=O)Nc2ccc(O)c3ccccc23)c1` was “inactive”; that for `CC(=O)Nc1ccc(C=NNc2ccc([N+](=O)[O-])cc2S(=O)(=O)Nc2ccccc2C(=O)O)cc1` was “inactive”. For `O=C(CCCCCn1c(=S)[nH]c2cc3c(cc2c1=O)OCO3)N1CCN(c2ccc(F)cc2)CC1`, the “activity change, negative = inhibition” value is “inactive”. Still for that read-out and setting: the value for `CCC(=O)Nc1ccc2c(c1)OC[C@H](C)N(C(=O)CC)C[C@H](C)[C@H](OC)CN(C)C2=O` was “inactive”; that for `CN1CCN(NC(=O)Nc2ccc(F)cc2)CC1` was “inactive”. As to `COc1ccc(N2C(=O)Cc3ccccc3C2=O)cc1`, the “activity change, negative = inhibition” value is “inactive”.

As to `CC(C)CN1CCC(CN2CCNC(=O)C2=O)CC1`, the “activity change, negative = inhibition” value is “inactive”. As to `COc1ccc(C=Nc2cccc3ncccc23)cc1`, the “activity change, negative = inhibition” value is “inactive”. The same measure, in the same setting: to `O=C(Nc1ccccc1)c1ccccc1OCc1cccc([N+](=O)[O-])c1` belongs “inactive”; to `O=Cc1cscc1[B-](F)(F)F`, “inactive”.

With `O=C(NCCc1ccccc1)c1cccc2c(-c3ccc(F)c(F)c3)coc12`, the “activity change, negative = inhibition” value is “inactive”.

Take `CCC(=O)Nc1c(C#N)c2nc3ccccc3nc2n1-c1ccc(C)cc1`: the “activity change, negative = inhibition” value is “inactive”. Turning to `CO[C@@H]1CN(C)C(=O)c2ccc(NC(=O)c3ccccc3)cc2OC[C@@H](C)N(C(=O)C2CC2)C[C@@H]1C`, the “activity change, negative = inhibition” value was “inactive”. For the compound `CCCCCn1nnnc1-c1nc2cc(C)c(C)cc2[nH]c1=O`, the “activity change, negative = inhibition” value was “inactive”. With `CCCCN(C(=O)c1cccc(-n2cccc2)c1)c1c(N)n(CCCC)c(=O)[nH]c1=O`, the “activity change, negative = inhibition” value was “inactive”. On the same count and under the same terms, the value for `CCOC(=O)N1CCN(C(=O)Cc2ccccc2[N+](=O)[O-])CC1` was “inactive”; that for `C=CCNC(=O)COc1ccccc1C#N` was “inactive”. The same measure, in the same setting: to `CO[C@@H]1CN(C)C(=O)c2ccc(NC(C)=O)cc2OC[C@@H](C)NC[C@@H]1C` belongs “inactive”; to `COc1ccc(S(=O)(=O)N2CCOC23CCN(S(=O)(=O)c2ccc(C)cc2)CC3)cc1`, “inactive”; to `O=C(CNC(=O)c1ccccc1F)N/N=C/c1ccc2c(c1)OCO2`, “inactive”. Same read-out and setting: the value for `Cc1ccc(S(=O)(=O)N(CC(=O)Nc2ccccc2C(=O)O)c2cccc(Cl)c2C)cc1` was “inactive”; that for `O=C(OCC(=O)N1CCN(c2ccccc2)CC1)c1ccc([N+](=O)[O-])s1` was “inactive”. On to `CC(C)N=C(Nc1cccnc1)c1ccccc1`, for which the “activity change, negative = inhibition” value was “inactive”.

As to `O=C(O)c1ccc2nnn(O)c2c1`, the “activity change, negative = inhibition” value is “inactive”.

For `O=C(NCC(c1ccco1)N1CCc2ccccc21)c1cccc([N+](=O)[O-])c1` (stereo not drawn), the “activity change, negative = inhibition” value is “inactive”. As for `COc1ccc(OC)c(N/C(=N/c2nc(C)cc(C)n2)NC(C)=O)c1`, the “activity change, negative = inhibition” value was “inactive”. Same read-out and setting: to `N[C@@H](Cc1cc(I)c(O)c(I)c1)C(=O)O` belongs “inactive”.
